Earlier results on one compound are cited in patent publication US9969730B2, “Stable SNS-595 compositions and methods of preparation” (Sunesis Pharmaceuticals, Inc., priority 2009, dated 2018).

Series [1] deals with various cancer cell lines.
Another series deals with xenografts. The conditions noted are these: in vivo.
In series [2] the test system is acute myeloid leukemia and ovarian cancer. The conditions noted are these: human cancer patients.

For `CN[C@H]1CN(c2ccc3c(=O)c(C(=O)O)cn(-c4nccs4)c3n2)C[C@@H]1OC` [SNS-595, (+)-1,4-dihydro-7-[(3S,4S)-3-methoxy-4-methylamino-1-pyrrolidinyl]-4-oxo-1-(2-thiazolyl)-1,8-naphthyridine-3-carboxylic acid], the “preclinical activity against various cancer cell lines” value in series [1] is “preclinical activity”. For the same compound, the “preclinical activity against xenografts” value with xenografts is “preclinical activity”. The “clinical activity in the treatment of acute myeloid leukemia and ovarian cancer” value in series [2] is “clinical activity”.
